Assay results as given in US20090148883A1, “BIOMARKER FOR ASSESSING RESPONSE TO FMS TREATMENT” (priority 2007, published 2009).
Where “and” joins values, the source holds several entries; their conditions need not be identical. Identical values can stand only once. Like-named read-outs stand apart in the source and are kept apart here. Marks after values point to notes of the source that are not given here.

Tests used:
CSF-1 [1] = assay: Plasma CSF-1 biomarker in rats, Example 2 (po bid 5 days); type: in vivo, rat; conditions: 5 mg/kg po bid, 5 consecutive days
Method: (§1) Groups of female Sprague Dawley rats (n=5) were orally administered 5 or 15 mg/kg of COMPOUND 2 or 40 mg/kg COMPOUND 1 twice per day for 5 consecutive days to characterize compound tolerability. Additional groups of rats, treated with vehicle or 40 mg/kg COMPOUND 1, were terminated one hour after the a.m. dose on Days 1 and 3 for interim analysis of various parameters. Post-mortem analysis of all treated animals included standard necropsy with liver histology evaluation as well as standard hematology and serology. None of the animals were found dead or were euthanized (moribund) prior to scheduled termination. None of the treatments affected body weight or the organ:body weight ratio of selected organs (i.e., liver, thymus, spleen & uterus). […] Both compounds, at the highest dose tested, decreased the number of macrophages in the uterus (up to ˜60% for COMPOUND 2) on Day 5 however, this parameter was highly variable.
On Day 0, the rats were ear tagged, randomized into the treatment groups (Groups 1 & 4: n=15, Groups 2 & 3: n=5), weighed and treated (po, bid) with either vehicle (20% HPbCD) or the test articles as delineated in Table 2 (Allocation of Treatment Groups).
(§2) On Days 1 & 3, one hour after a.m. dose, five rats from Groups 1 and 4 were euthanized using CO2 asphyxiation and exsanguinated via cardiac puncture. Blood samples (˜500 μL) were transferred to separate ethylenediaminetetraacetic acid (EDTA) microtainers and a complete blood count (CBC) was conducted using the Advia 120 Hematology System (Bayer Diagnostics, Tarrytown, N.Y.). Additional blood samples were transferred to separate microtainers (with or without anticoagulant) and processed for biomarker (i.e., MCSF-1) and serologic (i.e., AST/ALT) analysis. The liver and thymus were weighed and discarded. The spleens were weighed and zap-frozen and the uteri (without ovaries attached) were weighed and fixed in 10% buffered formalin. The macrophage content of the uterus was determined immunohistochemically using a macrophage-specific (ED-1) antibody.
On Day 5, rats were euthanized using carbon dioxide and exsanguinated via cardiac puncture. Blood samples (˜500 μL) were collected and processed as described above for CBC, biomarker analysis and serology. The liver, spleen, thymus and uterus (without ovaries attached) were isolated, weighed and fixed in buffered formalin. The right knee with femur attached was isolated, trimmed and fixed in formalin. The left femur was isolated for determination of bone marrow cell counts. Liver histopathology was also conducted.
Differences between treated and control groups were analyzed statistically by ANOVA with a Dunnett's Multiple Comparison post-test. (p value; *:<0.05, **:<0.01).

[2] = system: ED-1 positive macrophages in the uterus; assay: Macrophage content of the uterus (ED-1 immunohistochemistry) in rats, Example 2; type: in vivo, rat; conditions: Day 5
Method: as §1, §2
On Day 5, rats were euthanized using carbon dioxide and exsanguinated via cardiac puncture. […]
Differences between treated and control groups were analyzed statistically by ANOVA with a Dunnett's Multiple Comparison post-test. […]

[3] = Tolerability in rats, Example 2; type: in vivo; conditions: 5 or 15 mg/kg COMPOUND 2 or 40 mg/kg COMPOUND 1, po bid, 5 consecutive days
Method: as §1, with “variable. […]” for “variable.”
On Days 1 & 3, one hour after a.m. dose, five rats from Groups 1 and 4 were euthanized using CO2 asphyxiation and exsanguinated via cardiac puncture. […] The macrophage content of the uterus was determined immunohistochemically using a macrophage-specific (ED-1) antibody. […]

[4] = Plasma compound levels in rats dosed 4 days, Examples 3 and 4; type: in vivo, rat; conditions: 2 hrs after final dose, individual animals; for concentration at 2 h: female, Sprague Dawley, rat, plasma, oral
Method: (§3) Method: Female Sprague Dawley Rats (150 to 200 g BW) from Charles River were administered vehicle or COMPOUND 3 at 10 and 40 mg/kg p.o. bid for 4 days. On the fifth day, a final dose was given and the animals were sacrificed 2 hrs later. Rats were euthanized using CO2 asphyxiation and exsanguinated via cardiac puncture. An aliquot of blood ([…]) was transferred to an EDTA tube and processed for plasma and for determination of plasma compound and CSF-1 biomarker levels.

CSF-1 [5] = assay: Plasma CSF-1 in rats dosed 4 days, Examples 3 and 4 (mouse CSF-1 ELISA); type: in vivo, rat; conditions: for CSF-1 levels elevated: vs vehicle; for CSF-1, pg/ml, Mean (SEM) / Plasma CSF-1, pg/ml, Mean: group mean; for CSF-1, pg/ml, Mean (SEM) / CSF-1, pg/ml (plasma): vehicle mean 127; for CSF-1, pg/ml (plasma) / Plasma CSF-1, pg/ml: individual animals; for Plasma CSF-1, pg/ml, Mean / Plasma CSF-1, pg/ml: vehicle mean 124
Method: (§4) Pharmacodynamic activity in rats was determined to identify appropriate doses for efficacy studies. Circulating CSF-1 is cleared by sinusoidal macrophages when bound and internalized by FMS in a process that is partly dependent on FMS kinase activity. CSF-1 levels rise when FMS is inhibited, or when FMS inhibition reduces the number/function of macrophages. Uterine macrophages are short-lived and FMS-dependent. Quantitation of uterine macrophage density and plasma CSF-1 levels thereby provided pharmacodynamic endpoints measurable in rats following 4 days of dosing.
as §3, with “Method: Female Sprague Dawley Rats (150 to 200 g BW) from Charles River were administered vehicle or COMPOUND 3 at 10 and 40 mg/kg p.o. bid for 4 days.” left out

uterine macrophages = assay: Uterine ED1 stained area (uterine macrophage density) in rats dosed 4 days, Examples 3 and 4; type: in vivo, rat; conditions: for Uterine macrophages depleted: vs vehicle; for Uterine ED1 area/HPF, Mean (SEM) / Uterine ED1 area/HPF, Mean: group mean; for Uterine ED1 area/HPF: individual animals
Method: as §4
as §3, with “Method: Female Sprague Dawley Rats (150 to 200 g BW) from Charles River were administered vehicle or COMPOUND 3 at 10 and 40 mg/kg p.o. bid for 4 days.” left out
Spleens, livers and uteri (without ovaries) were isolated and weighed and uteri were fixed in formalin. Uteri sections were stained for ED1 and ED-1 stained area (arbitrary units) at 200× magnification was determined using Image-Pro Plus software.

[6] = Plasma compound levels in rats dosed 4 days, Examples 3 and 4; type: in vivo, rat; conditions: for concentration at 2 h: rat, plasma
[7] = 10 mg/kg p.o. bid 4 days, vehicle mean 9808
[8] = 40 mg/kg p.o. bid 4 days, vehicle mean 9808
[9] = 10 mpk, dosed 4 days, vehicle mean 2057
[10] = 20 mpk, dosed 4 days, vehicle mean 2057
[11] = 50 mpk, dosed 4 days, vehicle mean 2057

Cc1ncc(-c2c(C3=CCCCC3)c3cc(C#N)ccc3[nH]c2=O)[nH]1 [COMPOUND 2]
Effect on plasma concentrations of CSF-1 (CSF-1 [1]): failed to significantly affect plasma concentrations of CSF-1
Effect on macrophage content of the uterus ([2]; highest dose tested (COMPOUND 2 15 mg/kg, COMPOUND 1 40 mg/kg po bid), highly variable): significant effect
Decrease in number of ED-1 positive macrophages per field in the uterus ([2]; up to, dose dependent (5 and 15 mg/kg po bid)): ~60%
Effect on appearance, behavior, body weight or organ:body weight ratio (liver, spleen, thymus) [3]: did not have an observable effect

CONC(=O)c1cn(-c2ccc3c(c2)CCC3)c2nc(Nc3ccc(C4CCN(C)CC4)cc3)ncc2c1=O [COMPOUND 3]
Compound, ng/ml (plasma) ([4]; 10 mg/kg p.o. bid 4 days): 2080 ng/mL and 2800 ng/mL
Compound, ng/ml (plasma) ([4]; 40 mg/kg p.o. bid 4 days): 5060 ng/mL and 5730 ng/mL
concentration at 2 h ([4]; 10 mg/kg, 10 mg/kg p.o. bid 4 days): 2730 ng/mL
concentration at 2 h ([4]; 40 mg/kg, 40 mg/kg p.o. bid 4 days): 5320 ng/mL
CSF-1 levels elevated (CSF-1 [5]; 10 mg/kg p.o. bid 4 days): 4.5 fold
CSF-1, pg/ml, Mean (SEM) (CSF-1 [5]; 10 mg/kg p.o. bid 4 days): 570 pg/mL
CSF-1, pg/ml (plasma) (CSF-1 [5]; 10 mg/kg p.o. bid 4 days): 651 pg/mL and 482 pg/mL and 577 pg/mL
CSF-1 levels elevated (CSF-1 [5]; 40 mg/kg p.o. bid 4 days): 5.5 fold
CSF-1, pg/ml, Mean (SEM) (CSF-1 [5]; 40 mg/kg p.o. bid 4 days): 698 pg/mL
CSF-1, pg/ml (plasma) (CSF-1 [5]; 40 mg/kg p.o. bid 4 days): 548 pg/mL and 746 pg/mL and 801 pg/mL
Uterine macrophages depleted (uterine macrophages; 10 mg/kg p.o. bid 4 days): 51%
Uterine ED1 area/HPF, Mean (SEM) (uterine macrophages; [7]): 4855 arbitrary units
Uterine ED1 area/HPF (uterine macrophages; [7]): 4919 arbitrary units and 7609 arbitrary units and 2037 arbitrary units
Morphology of uterine macrophages (ED-1 staining) (uterine macrophages; 40 mg/kg p.o. bid 4 days): did not have the normal reticulated morphology
Uterine macrophages depleted (uterine macrophages; 40 mg/kg p.o. bid 4 days): 81%
Uterine ED1 area/HPF, Mean (SEM) (uterine macrophages; [8]): 1836 arbitrary units
Uterine ED1 area/HPF (uterine macrophages; [8]): 929 arbitrary units and 1721 arbitrary units and 2858 arbitrary units
concentration at 2 h ([6]; female, Sprague Dawley, oral, 10 mg/kg, 10 mg/kg p.o. bid 4 days, 2 hrs after final dose, group mean, read-out: Compound, ng/ml, Mean (SEM)): 2540 ng/mL
concentration at 2 h ([6]; female, Sprague Dawley, oral, 40 mg/kg, 40 mg/kg p.o. bid 4 days, 2 hrs after final dose, group mean, read-out: Compound, ng/ml, Mean (SEM)): 5370 ng/mL

CC1(C)CC=C(c2nc(C3CC(C)(C)OC(C)(C)C3)ccc2NC(=O)c2ncc(C#N)[nH]2)CC1 [COMPOUND 4]
CSF-1 levels elevated (CSF-1 [5]; 10 mpk, dosed 4 days): 28%
Plasma CSF-1, pg/ml, Mean (CSF-1 [5]; 10 mpk, dosed 4 days, p < 0.05 vs. Vehicle): 159* pg/ml
Plasma CSF-1, pg/ml (CSF-1 [5]; 10 mpk, dosed 4 days): 152 pg/mL and 165 pg/mL and 139 pg/mL and 157 pg/mL and 184 pg/mL
CSF-1 levels elevated (CSF-1 [5]; 20 mpk, dosed 4 days): 79%
Plasma CSF-1, pg/ml, Mean (CSF-1 [5]; 20 mpk, dosed 4 days, p < 0.005 vs. Vehicle): 211** pg/ml
Plasma CSF-1, pg/ml (CSF-1 [5]; 20 mpk, dosed 4 days): 211 pg/mL and 163 pg/mL and 196 pg/mL and 238 pg/mL and 249 pg/mL
CSF-1 levels elevated (CSF-1 [5]; 50 mpk, dosed 4 days): 363%
Plasma CSF-1, pg/ml, Mean (CSF-1 [5]; 50 mpk, dosed 4 days, p < 0.005 vs. Vehicle): 574** pg/ml
Plasma CSF-1, pg/ml (CSF-1 [5]; 50 mpk, dosed 4 days): 540 pg/mL and 696 pg/mL and 506 pg/mL and 585 pg/mL and 541 pg/mL
Dose with a threshold level of activity for CSF-1 elevation and uterine macrophage depletion (CSF-1 [5]; rats dosed 4 days): 10 mg/kg
Uterine macrophages depleted (uterine macrophages; 10 mpk, dosed 4 days): 27%
Uterine ED1 area/HPF, Mean (uterine macrophages; [9]): 1501 arbitrary units
Uterine ED1 area/HPF (uterine macrophages; [9]): 1003 arbitrary units and 1233 arbitrary units and 1174 arbitrary units and 1021 arbitrary units and 3075 arbitrary units
Uterine macrophages depleted (uterine macrophages; 20 mpk, dosed 4 days): 28%
Uterine ED1 area/HPF, Mean (uterine macrophages; [10]): 1476 arbitrary units
Uterine ED1 area/HPF (uterine macrophages; [10]): 1419 arbitrary units and 1995 arbitrary units and 1164 arbitrary units and 1560 arbitrary units and 1244 arbitrary units
Uterine macrophages depleted (uterine macrophages; 50 mpk, dosed 4 days): 44%
Uterine ED1 area/HPF, Mean (uterine macrophages; [11]): 1149 arbitrary units
Uterine ED1 area/HPF (uterine macrophages; [11]): 681 arbitrary units and 1431 arbitrary units and 2955 arbitrary units and 585 arbitrary units and 94 arbitrary units
Plasma compound, ng/ml, Mean ([6]; 10 mpk, dosed 4 days, 2 hours after last dose, group mean): 1414 (186) ng/ml
Plasma compound ([6]; 10 mpk, dosed 4 days, 2 hours after last dose, individual animals): 968 ng/mL and 1560 ng/mL and 1790 ng/mL and 1680 ng/mL
Plasma compound, ng/ml, Mean ([6]; 20 mpk, dosed 4 days, 2 hours after last dose, group mean): 2636 (172) ng/ml
Plasma compound ([6]; 20 mpk, dosed 4 days, 2 hours after last dose, individual animals): 2670 ng/mL and 2320 ng/mL and 2470 ng/mL and 3210 ng/mL
Plasma compound, ng/ml, Mean ([6]; 50 mpk, dosed 4 days, 2 hours after last dose, group mean): 6612 (881) ng/ml
Plasma compound ([6]; 50 mpk, dosed 4 days, 2 hours after last dose, individual animals): 6090 ng/mL and 4800 ng/mL and 9390 ng/mL and 7110 ng/mL
concentration at 2 h ([6]; 10 mpk, dosed 4 days, 2 hours after last dose, group mean, read-out: Plasma compound, ng/ml, Mean): 1410 ng/mL
concentration at 2 h ([6]; 10 mpk, dosed 4 days, 2 hours after last dose, individual animals, read-out: Plasma compound): 1070 ng/mL
concentration at 2 h ([6]; 20 mpk, dosed 4 days, 2 hours after last dose, individual animals, read-out: Plasma compound): 2510 ng/mL
concentration at 2 h ([6]; 50 mpk, dosed 4 days, 2 hours after last dose, group mean, read-out: Plasma compound, ng/ml, Mean): 6610 ng/mL
concentration at 2 h ([6]; 50 mpk, dosed 4 days, 2 hours after last dose, individual animals, read-out: Plasma compound): 5670 ng/mL
concentration at 2 h ([6]; dosed 4 days, 2 hours after last dose, group mean, read-out: Plasma compound, ng/ml, Mean): 2640 ng/mL
